{"source": "patent US20240016731A1", "about": "“Drug Implants Containing Apalutamide and Methods of Use Thereof” (The Regents of the University of California, priority 2020, published 2024)", "origin": "cited, not measured here", "conditions": "systemic (e.g., oral) administration, assuming 240 mg daily dose"}
{"compound": "CNC(=O)c1ccc(N2C(=S)N(c3cnc(C#N)c(C(F)(F)F)c3)C(=O)C23CCC3)cc1F", "note": "[apalutamide, Apalutamide]", "values": [{"measurement": "steady state blood plasma concentration of apalutamide", "value": "about 6 μg/ml"}]}
